Reference: patent US12042560B2, “Liposome composition” (Eisai R&D Management Co., Ltd., priority 2009, dated 2024)
Where a name gives a salt, the structure may show the parent alone.

Assays:
[1] = test system: FaDu human pharyngeal squamous cell carcinoma line; test: In vivo antitumor activity in FaDu cancer-bearing nude mice; settings: free bodies, 4 mg/kg, caudal vein, 3 times in 7-day intervals, FIG. 2
Experimental: (§1) FaDu (obtained from the American Type Culture Collection), which is a human pharyngeal squamous cell carcinoma line, was cultured and grown in a 10% bovine fetal serum-containing MEM culture. The cells were separated from the flask using 0.05% Trypsin-EDTA solution and collected. After washing with PBS, the cells were suspended in PBS so as to be 5×10^7 cells/mL and kept on ice. 0.1 mL of cell suspension liquid were subcutaneously injected in the right ventral portion of 6-week old nude mice (Charles River Laboratories Japan, Inc.). Each mouse was observed daily, and notes were made appropriately in cases where abnormal conditions were found. Calipers were used to measure the tumor size over time, and the tumor size was calculated based on the calculation formula: major axis×(minor axis squared)÷2. At the point when the tumor size was 100 to 200 mm^3, the mice were separated into groups such that the average values of the tumor sizes and the mouse body weights were uniform among the test groups (five mice per test group), and the drug was administered into the caudal vein (0.2 mL/20 g; 3 times in 7-day intervals).

[2] = Maximum tolerated dose in nude mice; settings: mouse, in vivo, intravenous, free bodies
Experimental: as §1, with “At the point when the tumor size was 100 to 200 mm^3, the mice were separated into groups such that the average values of the tumor sizes and the mouse body weights were uniform among the test groups (five mice per test group), and the drug was administered into the caudal vein (0.2 mL/20 g; 3 times in 7-day intervals).” left out
ACHN (obtained from the American Type Culture Collection), which is a human renal cancer cell line, was cultured and grown in a 10% bovine fetal serum-containing MEM culture. […] Calipers were used to measure the tumor size over time, and the tumor size was calculated based on the calculation formula: major axis×(minor axis squared)÷2. […]

[3] = test system: ACHN human renal cancer cell line; test: In vivo antitumor activity in ACHN cancer-bearing nude mice; settings: free body, 2 mg/kg, 3 mg/kg and 4 mg/kg, 45 days after the start of sample administration, FIG. 3
Experimental: ACHN (obtained from the American Type Culture Collection), which is a human renal cancer cell line, was cultured and grown in a 10% bovine fetal serum-containing MEM culture. The cells were separated from the flask using 0.05% Trypsin-EDTA solution and collected. After washing with PBS, the cells were suspended in PBS so as to be 5×10^7 cells/mL and then kept on ice. 0.1 mL of cell suspension liquid were subcutaneously injected in the right ventral portion of 6-week old nude mice (Charles River Laboratories Japan, Inc.). Each mouse was observed daily, and notes made appropriately in cases where abnormal conditions were found. Calipers were used to measure the tumor size over time, and the tumor size was calculated based on the calculation formula: major axis×(minor axis squared)÷2. At the point when the tumor size was 150 to 200 mm^3, the mice were separated into groups such that the average values of the tumor sizes and the body weights of mice were uniform among the test groups (five mice per test group), and the drug was administered into the caudal vein (0.2 mL/20 g; 3 times in 7-day intervals).

## C=C1C[C@@H]2CC[C@@]34C[C@H]5O[C@H]6[C@@H](O3)[C@H]3O[C@H](CC[C@@H]3O[C@H]6[C@H]5O4)CC(=O)C[C@@H]3[C@@H](OC)[C@@H](C[C@H](O)CN)O[C@H]3C[C@H]3O[C@@H](CC[C@@H]1O2)C[C@@H](C)C3=C [Eribulin mesylate, eribulin mesylate]
[1]
  Tumor-reducing effect (average tumor volume): a tumor-reducing effect was not obtained
[2]
  MTD: 4 mg/kg
[3]
  Tumor volume versus non-treated group: no significant difference was found
